From patent US20230322723A1, “COMPOUNDS FOR SUPPRESSING EGFR MUTANT CANCER AND PHARMACEUTICAL USE THEREOF” (J2H BIOTECH INC., priority 2020, published 2023) come the findings set out here.

One assay deals with EGFR^del19+T790M+C797S. The assay is described as follows: EGFR protein degradation test (Western blot) in Ba/F3 cells expressing mutant EGFR del19+T790M+C797S (DTC). In kind it is cell-based. To be noted: compounds at 0.1 μM and 1 μM, 24 hours, Western blot with EGFR antibody. In outline:
(§1)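 EGFR protein level was measured by Western blot on 30 μg lysate, bands quantified by imager. Lysates came from Ba/F3 lines carrying normal, LTC or DTC mutant EGFR, exposed 24 h to compound at 0.1 and 1 μM.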

For a further assay, the target named is T1, EGFR^L858R+T790M+C797S (Homo sapiens, UniProt P00533, C797S/L858R/T790M).
T1 construct: expressed in transfected cells; host or cells: Ba/F3
T1 sequence (P00533 25-1210 T790M/C797S/L858R): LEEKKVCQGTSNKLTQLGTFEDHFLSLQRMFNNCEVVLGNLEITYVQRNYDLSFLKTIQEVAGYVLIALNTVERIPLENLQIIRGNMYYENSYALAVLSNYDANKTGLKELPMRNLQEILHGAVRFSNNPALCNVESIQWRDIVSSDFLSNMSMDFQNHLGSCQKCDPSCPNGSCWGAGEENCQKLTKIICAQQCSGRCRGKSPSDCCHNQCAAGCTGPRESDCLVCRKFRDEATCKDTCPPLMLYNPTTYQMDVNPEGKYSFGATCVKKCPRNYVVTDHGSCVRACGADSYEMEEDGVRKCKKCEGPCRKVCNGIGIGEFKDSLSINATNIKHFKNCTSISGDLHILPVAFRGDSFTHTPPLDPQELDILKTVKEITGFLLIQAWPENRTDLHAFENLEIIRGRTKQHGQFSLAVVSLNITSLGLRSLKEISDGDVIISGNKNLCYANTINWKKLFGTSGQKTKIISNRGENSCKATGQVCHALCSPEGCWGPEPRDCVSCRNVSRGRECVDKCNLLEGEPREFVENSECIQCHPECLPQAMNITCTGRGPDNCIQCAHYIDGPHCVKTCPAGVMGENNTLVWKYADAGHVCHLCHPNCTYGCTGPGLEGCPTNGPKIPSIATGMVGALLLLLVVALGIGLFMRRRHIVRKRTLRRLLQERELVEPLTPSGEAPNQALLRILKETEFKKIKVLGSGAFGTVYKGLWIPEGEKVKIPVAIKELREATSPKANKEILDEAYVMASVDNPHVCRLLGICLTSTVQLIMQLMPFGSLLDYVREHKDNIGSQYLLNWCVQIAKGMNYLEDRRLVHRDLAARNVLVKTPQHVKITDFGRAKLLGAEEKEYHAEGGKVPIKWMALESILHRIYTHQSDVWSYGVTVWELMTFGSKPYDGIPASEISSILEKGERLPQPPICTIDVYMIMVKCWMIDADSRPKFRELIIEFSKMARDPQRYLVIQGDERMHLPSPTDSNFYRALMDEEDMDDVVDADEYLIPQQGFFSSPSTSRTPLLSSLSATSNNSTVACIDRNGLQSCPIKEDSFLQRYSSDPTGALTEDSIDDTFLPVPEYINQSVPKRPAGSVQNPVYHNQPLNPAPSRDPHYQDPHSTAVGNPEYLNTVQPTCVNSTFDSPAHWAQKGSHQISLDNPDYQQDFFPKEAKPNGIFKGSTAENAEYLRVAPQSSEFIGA
Description: EGFR protein degradation test (Western blot) in Ba/F3 cells expressing mutant EGFR L858R+T790M+C797S (LTC). Particulars: compounds at 0.1 μM and 1 μM, 24 hours, Western blot with EGFR antibody. In kind it is cell-based. In outline:
as §1
For orientation: A western blot detects proteins with antibodies after separation by electrophoresis.

For the compound `CN(c1ccccc1Nc1nc(Nc2ccc(N3CCC(N4CCN(Cc5ccc6c(c5)C(=O)N(C5CCC(=O)NC5=O)C6=O)CC4)CC3)c(F)c2)ncc1Cl)S(C)(=O)=O` (stereo not shown) [Compound 42, N-(2-((5-chloro-2-((4-(4-(4-((2-(2,6-dioxopiperidin-3-yl)-1,3-dioxoisoindolin-5-yl)methyl)piperazin-1-yl)piperidin-1-yl)-3-fluorophenyl)amino)pyrimidin-4-yl)amino)phenyl)-N-methylmethanesulfonamide], in the assay with EGFR^del19+T790M+C797S, the “DTC (EGFR^del19+T790M+C797S) protein degradation” value (“DTC” below) is recorded as “+ (Protein degradation 20~80%)”. For the same compound, the “LTC (EGFR^L858R+T790M+C797S) protein degradation” value (“LTC” for short) at EGFR^L858R+T790M+C797S is recorded as “− (Protein degradation < 20%)”.
The matching figures for `COc1cc(N2CCC(N3CCN(C[C@@H]4CCCN4c4ccc5c(c4)C(=O)N(C4CCC(=O)NC4=O)C5=O)CC3)CC2)ccc1Nc1ncc(Cl)c(Nc2ccccc2N(C)S(C)(=O)=O)n1` (stereo partly drawn) [Compound 44, N-(2-((5-chloro-2-((4-(4-(4-(((2S)-1-(2-(2,6-dioxopiperidin-3-yl)-1,3-dioxoisoindolin-5-yl)pyrrolidin-2-yl)methyl)piperazin-1-yl)piperidin-1-yl)-2-methoxyphenyl)amino)pyrimidin-4-yl)amino)phenyl)-N-methylmethanesulfonamide]: “− (Protein degradation < 20%)” and “+ (Protein degradation 20~80%)”.
In the case of `CN(c1ccccc1Nc1nc(Nc2ccc(N3CCN(CC4CCN(CCOc5cccc6c5C(=O)N(C5CCC(=O)NC5=O)C6=O)CC4)CC3)c(F)c2)ncc1Cl)S(C)(=O)=O` (stereo not shown) [Compound 46, N-(2-((5-chloro-2-((4-(4-((1-(2-((2-(2,6-dioxopiperidin-3-yl)-1,3-dioxoisoindolin-4-yl)oxy)ethyl)piperidin-4-yl)methyl)piperazin-1-yl)-3-fluorophenyl)amino)pyrimidin-4-yl)amino)phenyl)-N-methylmethanesulfonamide], the “DTC” value in the assay on EGFR^del19+T790M+C797S is recorded as “+ (Protein degradation 20~80%)”. Besides, the “LTC” value at EGFR^L858R+T790M+C797S is reported as “+ (Protein degradation 20~80%)”.
For `COc1cc(N2CCC(CN3CCC(C(=O)Nc4cccc5c4CN(C4CCC(=O)NC4=O)C5=O)CC3)CC2)ccc1Nc1ncc(Cl)c(Nc2ccccc2N(C)S(C)(=O)=O)n1` (stereo not shown) [Compound 49, 1-((1-(4-((5-chloro-4-((2-(N-methylmethylsulfonamido)phenyl)amino)pyrimidin-2-yl)amino)-3-methoxyphenyl)piperidin-4-yl)methyl)-N-(2-(2,6-dioxopiperidin-3-yl)-1-oxoisoindolin-4-yl)piperidin-4-carboxamide], the “DTC” value with EGFR^del19+T790M+C797S is given as “− (Protein degradation < 20%)”. The “LTC” value at EGFR^L858R+T790M+C797S was “− (Protein degradation < 20%)”.
With `COc1cc(N2CCC3(CCN(CC(=O)Nc4cccc5c4CN(C4CCC(=O)NC4=O)C5=O)CC3)CC2)ccc1Nc1ncc(Cl)c(Nc2ccccc2N(C)S(C)(=O)=O)n1` (stereo not shown) [Compound 50, 2-(9-(4-((5-chloro-4-((2-(N-methylmethylsulfonamido)phenyl)amino)pyrimidin-2-yl)amino)-3-methoxyphenyl)-3,9-diazaspiro[5.5]undecan-3-yl)-N-(2-(2,6-dioxopiperidin-3-yl)-1-oxoisoindolin-4-yl)acetamide], the “DTC” value with EGFR^del19+T790M+C797S is given as “+ (Protein degradation 20~80%)”. Besides, the “LTC” value on EGFR^L858R+T790M+C797S was “− (Protein degradation < 20%)”.
Regarding `COc1cc(N2CCC(N3CCN(CCOc4cccc5c4C(=O)N(C4CCC(=O)NC4=O)C5=O)CC3)CC2)ccc1Nc1ncc(Cl)c(Nc2ccccc2N(C)S(C)(=O)=O)n1` (stereo not shown) [Compound 52, N-(2-((5-chloro-2-((4-(4-(4-(2-((2-(2,6-dioxopiperidin-3-yl)-1,3-dioxoisoindolin-4-yl)oxy)ethyl)piperazin-1-yl)piperidin-1-yl)-2-methoxyphenyl)amino)pyrimidin-4-yl)amino)phenyl)-N-methylmethanesulfonamide], the “DTC” value in the assay with EGFR^del19+T790M+C797S is “+ (Protein degradation 20~80%)”. For the same compound, at EGFR^L858R+T790M+C797S, the “LTC” value is given as “− (Protein degradation < 20%)”.
Regarding `COc1cc(N2CCN(CC3CCN(CCOc4cccc5c4C(=O)N(C4CCC(=O)NC4=O)C5=O)CC3)CC2)ccc1Nc1ncc(Cl)c(Nc2ccccc2N(C)S(C)(=O)=O)n1` (stereo not shown) [Compound 57, N-(2-((5-chloro-2-((4-(4-((1-(2-((2-(2,6-dioxopiperidin-3-yl)-1,3-dioxoisoindolin-4-yl)oxy)ethyl)piperidin-4-yl)methyl)piperazin-1-yl)-2-methoxyphenyl)amino)pyrimidin-4-yl)amino)phenyl)-N-methylmethanesulfonamide], the “DTC” value with EGFR^del19+T790M+C797S is recorded as “− (Protein degradation < 20%)”. For the same compound, at EGFR^L858R+T790M+C797S, the “LTC” value is listed as “− (Protein degradation < 20%)”.
With `COc1cc(N2CCC(N3CCN(CCNc4ccc5c(c4)C(=O)N(C4CCC(=O)NC4=O)C5=O)CC3)CC2)ccc1Nc1ncc(Cl)c(Nc2ccccc2N(C)S(C)(=O)=O)n1` (stereo not shown) [Compound 58, N-(2-((5-chloro-2-((4-(4-(4-(2-((2-(2,6-dioxopiperidin-3-yl)-1,3-dioxoisoindolin-5-yl)amino)ethyl)piperazin-1-yl)piperidin-1-yl)-2-methoxyphenyl)amino)pyrimidin-4-yl)amino)phenyl)-N-methylmethanesulfonamide], the “DTC” value in the assay on EGFR^del19+T790M+C797S is “− (Protein degradation < 20%)”. Further, the “LTC” value on EGFR^L858R+T790M+C797S is on record as “+ (Protein degradation 20~80%)”.
`COc1cc(N2CCN(CC3CCN(CC4CCN(c5ccc6c(c5)C(=O)N(C5CCC(=O)NC5=O)C6=O)CC4)CC3)CC2)ccc1Nc1ncc(Cl)c(Nc2ccccc2N(C)S(C)(=O)=O)n1` (stereo not shown) [Compound 59, N-(2-((5-chloro-2-((4-(4-((1-((1-(2-(2,6-dioxopiperidin-3-yl)-1,3-dioxoisoindolin-5-yl)piperidin-4-yl)methyl)piperidin-4-yl)methyl)piperazin-1-yl)-2-methoxyphenyl)amino)pyrimidin-4-yl)amino)phenyl)-N-methylmethanesulfonamide]: in the assay on EGFR^del19+T790M+C797S, the “DTC” value is reported as “++ (Protein degradation > 80%)”. In addition, the “LTC” value at EGFR^L858R+T790M+C797S is “+ (Protein degradation 20~80%)”.
`COc1cc(N2CCC(N3CCN(CC4CN(c5ccc6c(c5)C(=O)N(C5CCC(=O)NC5=O)C6=O)C4)CC3)CC2)ccc1Nc1ncc(Cl)c(Nc2ccccc2N(C)S(C)(=O)=O)n1` (stereo not shown) [Compound 60, N-(2-((5-chloro-2-((4-(4-(4-((1-(2-(2,6-dioxopiperidin-3-yl)-1,3-dioxoisoindolin-5-yl)azetidin-3-yl)methyl)piperazin-1-yl)piperidin-1-yl)-2-methoxyphenyl)amino)pyrimidin-4-yl)amino)phenyl)-N-methylmethanesulfonamide]: in the assay with EGFR^del19+T790M+C797S, the “DTC” value is “− (Protein degradation < 20%)”. Further, the “LTC” value on EGFR^L858R+T790M+C797S is on record as “++ (Protein degradation > 80%)”.
As to `COc1cc(N2CCN(CC3CCN(CC4CN(c5ccc6c(c5)C(=O)N(C5CCC(=O)NC5=O)C6=O)C4)CC3)CC2)ccc1Nc1ncc(Cl)c(Nc2ccccc2N(C)S(C)(=O)=O)n1` (stereo not shown) [Compound 61, N-(2-((5-chloro-2-((4-(4-((1-((1-(2-(2,6-dioxopiperidin-3-yl)-1,3-dioxoisoindolin-5-yl)azetidin-3-yl)methyl)piperidin-4-yl)methyl)piperazin-1-yl)-2-methoxyphenyl)amino)pyrimidin-4-yl)amino)phenyl)-N-methylmethanesulfonamide], the “DTC” value in the assay on EGFR^del19+T790M+C797S was “− (Protein degradation < 20%)”. Also, the “LTC” value on EGFR^L858R+T790M+C797S is on record as “+ (Protein degradation 20~80%)”.
In the case of `COc1cc(N2CCC(CN3CCC(CNc4cccc5c4C(=O)N(C4CCC(=O)NC4=O)C5=O)CC3)CC2)ccc1Nc1ncc(Cl)c(Nc2ccccc2N(C)S(C)(=O)=O)n1` (stereo not shown) [Compound 62, N-(2-((5-chloro-2-((4-(4-((4-(((2-(2,6-dioxopiperidin-3-yl)-1,3-dioxoisoindolin-4-yl)amino)methyl)piperidin-1-yl)methyl)piperidin-1-yl)-2-methoxyphenyl)amino)pyrimidin-4-yl)amino)phenyl)-N-methylmethanesulfonamide], in the assay on EGFR^del19+T790M+C797S, the “DTC” value was “+ (Protein degradation 20~80%)”. The “LTC” value on EGFR^L858R+T790M+C797S is recorded as “++ (Protein degradation > 80%)”.
As to `COc1cc(N2CCC(CN3CCC(CNc4ccc5c(c4)C(=O)N(C4CCC(=O)NC4=O)C5=O)CC3)CC2)ccc1Nc1ncc(Cl)c(Nc2ccccc2N(C)S(C)(=O)=O)n1` (stereo not shown) [Compound 63, N-(2-((5-chloro-2-((4-(4-((4-(((2-(2,6-dioxopiperidin-3-yl)-1,3-dioxoisoindolin-5-yl)amino)methyl)piperidin-1-yl)methyl)piperidin-1-yl)-2-methoxyphenyl)amino)pyrimidin-4-yl)amino)phenyl)-N-methylmethanesulfonamide], the “DTC” value in the assay with EGFR^del19+T790M+C797S was “+ (Protein degradation 20~80%)”. Further, the “LTC” value on EGFR^L858R+T790M+C797S was “++ (Protein degradation > 80%)”.
With `COc1cc(N2CCN(CC3CCN(C(=O)CCc4ccc5c(c4)C(=O)N(C4CCC(=O)NC4=O)C5=O)CC3)CC2)ccc1Nc1ncc(Cl)c(Nc2ccccc2N(C)S(C)(=O)=O)n1` (stereo not shown) [Compound 64, N-(2-((5-chloro-2-((4-(4-((1-(3-(2-(2,6-dioxopiperidin-3-yl)-1,3-dioxoisoindolin-5-yl)propanoyl)piperidin-4-yl)methyl)piperazin-1-yl)-2-methoxyphenyl)amino)pyrimidin-4-yl)amino)phenyl)-N-methylmethanesulfonamide], the “DTC” value in the assay with EGFR^del19+T790M+C797S was “− (Protein degradation < 20%)”. The “LTC” value on EGFR^L858R+T790M+C797S was “+ (Protein degradation 20~80%)”.
